For four compounds, EC50 and IC50 results are on record in patent US10344026B2, “Compositions and methods of targeting mutant K-ras” (NANTBIO, INC., priority 2017, dated 2019).

Holding throughout (format): cell-based
Assay [1] relates to phospho-Akt in HCC827 (Wild-type). Description: In-Cell Western phospho-Akt, HCC827. The note with it: Homo sapiens, 1 h; HCC827, one hour treatment; read-out: In-Cell Western HCC827 (Wild-type) Akt (P). Summed up: (§1)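 Following an 18 hr settle at 37° C, seeded cells receive test compound for 1 hr before fixation and staining with phospho-Akt and phospho-ERK primary antibodies (overnight, 4° C) plus a goat anti-rabbit secondary. Plates are imaged and fluorescence quantitated to give EC50.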

Assay [2] relates to phospho-ERK in Panc10.05 (G12D). In words: In-Cell Western phospho-ERK, Panc10.05. The note with it: Homo sapiens, Panc1005, 1 h; Panc10.05, one hour treatment; read-out: In-Cell Western Panc10.05 (G12D) Erk (P). In a few lines:
as §1

In assay [3] the test system is phospho-Akt in Panc1 (G12D). Description: In-Cell Western phospho-Akt, Panc1. The settings on record: Homo sapiens, PANC-1, 1 h; Panc1, one hour treatment; read-out: In-Cell Western Panc1 (G12D) Akt (P). In a few lines:
as §1

The subject of assay [4] is U87-MG (K-Ras wild type cell line). In words: Viability assay (CellTiterBlue, 72 hr) U87-MG. The settings on record: Homo sapiens, U-87 MG, GI50, CellTiterBlue, U87-MG K-Ras wild-type. In a few lines: (§2)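 GI50 calculation uses a window set by DMSO-treated wells (100% viability) and 100 uM tamoxifen (0%). Cells (1000/well) sit 18 hr at 37 °C, receive compound for 72 hr in 0.5% DMSO, then get CellTiterBlue for 3 hr before reading at Ex550/Em590.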

Assay [5] concerns phospho-ERK in Panc1 (G12D). In words: In-Cell Western phospho-ERK, Panc1. The note with it: Homo sapiens, PANC-1, 1 h; Panc1, one hour treatment; read-out: In-Cell Western Panc1 (G12D) Erk (P). In a few lines: as §1
A further assay has as its system HCT116-G31D. Description: Viability assay (CellTiterBlue, 72 hr) HCT116. The settings on record: Homo sapiens, HCT-116, GI50, CellTiterBlue, HCT116 K-Ras G13D, read-out: 72 hr Cell Viability HCT116 (G13D). In a few lines:
as §2
(Alamar Blue is a resazurin reagent that responds to reducing activity.)

Another assay has as its target T1, K-Ras G12D (Homo sapiens, UniProt P01116, G12D).
T1 construct: expressed in transfected cells; host or cells: 293H cells
In words: G-LISA Ras activation, 293H cells transfected with G12D mutant. The note with it: compound 1 hour. In a few lines: (§3)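 Active Ras was quantified by G-LISA in lysates of 293H cells transiently expressing wild-type or mutant Ras. Compounds (3.125-25 μM) were applied for 1 hour; only wild-type transfected cells were stimulated with 100 ng/ml EGF for 2 minutes.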

The test system of assay [6] is A375 (K-Ras wild type cell line). Description: Viability assay (CellTiterBlue, 72 hr) A375. The note with it: Homo sapiens, A-375, GI50, CellTiterBlue. In a few lines: as §2
Assay [7] relates to phospho-ERK in A375 (Wild-type). Description: In-Cell Western phospho-ERK, A375. The note with it: Homo sapiens, A-375, 1 h; A375, one hour treatment; read-out: In-Cell Western A375 (Wild-type) Erk (P). Summed up: as §1
The subject of another assay is Panc1-G12D. In words: Viability assay (CellTiterBlue, 72 hr) Panc1. The settings on record: Homo sapiens, PANC-1, GI50, CellTiterBlue, Panc1 K-Ras G12D, read-out: 72 hr Cell Viability Panc1 (G12D). In a few lines: as §2
The next assay concerns the target T2, wild type K-Ras (Homo sapiens, UniProt P01116).
T2 construct: expressed in transfected cells; host or cells: 293H cells
Description: G-LISA Ras activation, 293H cells transfected with Ras wild-type, EGF stimulated. The settings on record: compound 1 hour, then 100 ng/ml EGF 2 minutes. In a few lines:
as §3

For assay [8], the system named is HCC827 (K-Ras wild type cell line). Description: Viability assay (CellTiterBlue, 72 hr) HCC827. The note with it: Homo sapiens, GI50, CellTiterBlue, HCC827 K-Ras wild-type. In a few lines: as §2
The subject of assay [9] is phospho-Akt in Panc10.05 (G12D). In words: In-Cell Western phospho-Akt, Panc10.05. The note with it: Homo sapiens, Panc1005, 1 h; Panc10.05, one hour treatment; read-out: In-Cell Western Panc10.05 (G12D) Akt (P). In a few lines:
as §1

In the next assay the test system is Panc10.05-G12D. In words: Viability assay (CellTiterBlue, 72 hr) Panc10.05. The settings on record: Homo sapiens, Panc1005, GI50, CellTiterBlue, Panc10.05 K-Ras G12D, read-out: 72 hr Cell Viability Panc10.05 (G12D). Summed up:
as §2

Assay [10] concerns phospho-ERK in HCC827 (Wild-type). Description: In-Cell Western phospho-ERK, HCC827. The note with it: Homo sapiens, 1 h; HCC827, one hour treatment; read-out: In-Cell Western HCC827 (Wild-type) Erk (P). In a few lines: as §1
Assay [11] has as its system phospho-Akt in A375 (Wild-type). In words: In-Cell Western phospho-Akt, A375. The settings on record: Homo sapiens, A-375, 1 h; A375, one hour treatment; read-out: In-Cell Western A375 (Wild-type) Akt (P). Summed up: as §1
Assay [12] concerns Ishikawa (K-Ras wild type cell line). In words: Viability assay (CellTiterBlue, 72 hr) Ishikawa. The note with it: Homo sapiens, GI50, CellTiterBlue, Ishikawa K-Ras wild-type. In a few lines: as §2

The structures appear in SMILES notation.

T1 sequence (P01116 whole entry G12D): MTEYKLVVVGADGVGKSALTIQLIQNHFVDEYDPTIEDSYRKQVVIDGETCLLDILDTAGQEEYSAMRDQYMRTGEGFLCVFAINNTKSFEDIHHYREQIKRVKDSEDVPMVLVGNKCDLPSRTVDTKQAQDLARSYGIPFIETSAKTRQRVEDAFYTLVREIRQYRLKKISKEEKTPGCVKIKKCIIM
T2 sequence (P01116 whole entry): as the sequence (P01116 whole entry G12D) above, with D12G counted along it

As for `COCCN1C(=O)CCc2cc(-c3csc(NC(=O)c4oc(C(C)C)nc4C)n3)ccc21` [Compound 111, 2-isopropyl-NA-(4-(1-(2-methoxyethyl)-2-oxo-1,2,3,4-tetrahydroquinolin-6-yl)thiazol-2-yl)-4-methyloxazole-5-carboxamide], the EC50 in [1] was > 25 µM; in assay [2], 0.767 µM; in assay [3], 16 µM; in [5], 1.4 µM; in assay [7] it was 12 µM; in assay [9], 2 µM. Moreover, the figures for the EC50 in assay [10] and in [11] were 1.6 µM and > 25 µM, respectively. In addition, the IC50 was found to be 7 µM in assay [4]; 24 µM with HCT116-G31D; 2.5 µM at K-Ras G12D; 7 µM in assay [6]; 2 µM with Panc1-G12D; 3.9 µM against wild type K-Ras. The figures for the IC50 (in assay [8]; in the assay with Panc10.05-G12D; in assay [12]) were 2 µM, 0.852 µM and 4 µM, respectively.

On to `COCCN1C(=O)CCc2cc(-c3csc(NC(=O)c4c(C)nn(C)c4C)n3)ccc21` [Compound 120, N-(4-(1-(2-methoxyethyl)-2-oxo-1,2,3,4-tetrahydroquinoinolin-6-yl)thiazol-2-yl)-1,3,5-trimethyl-1H-pyrazole-4-carboxamide], for which the EC50 is > 25 µM in [1]; 1.2 µM in assay [2]; 26 µM in assay [3]; 5 µM in [5]; 24 µM in assay [7]; 5 µM in assay [9]. The EC50 in assay [10] was 3 µM; in [11], > 25 µM. Further, the IC50 is 13 µM in assay [4]; > 25 µM with HCT116-G31D; 3.4 µM at K-Ras G12D; 20 µM in assay [6]; 4 µM in the assay with Panc1-G12D; 11.9 µM on wild type K-Ras. Besides, the results for the IC50 (in assay [8]; with Panc10.05-G12D; in assay [12]) were 4 µM, 0.802 µM and 10 µM, respectively.

As to `Cc1nn(C(C)C)c(C)c1C(=O)Nc1nc(-c2ccc3c(c2)CCC(=O)N3Cc2cccnc2)cs1` [Compound 117, 1-isopropyl-3,5-dimethyl-N-(4-(2-oxo-1-(pyridin-3-ylmethyl)-1,2,3,4-tetrahydroquinolin-6-yl)thiazol-2-yl)-1H-pyrazole-4-carboxamide], the EC50 in assay [1] was > 25 µM; in [2], 0.914 µM; in [3] it was 23 µM; in [5] it was 4 µM; in assay [7], 15 µM; in assay [9] it was 3 µM. The EC50 in assay [10] was 4 µM; in [11], > 25 µM. Moreover, the IC50 in assay [4] is > 25 µM; in the assay with HCT116-G31D, > 25 µM; at K-Ras G12D, 2.6 µM; in [6], 14 µM; in the assay with Panc1-G12D, 3 µM; at wild type K-Ras, 6.7 µM. For the same compound, the results for the IC50 (in [8]; with Panc10.05-G12D; in assay [12]) were 4 µM, 1.4 µM and 5 µM, respectively.

Turning to `CCn1cc(C(=O)Nc2nc(-c3ccc4c(c3)CCC(=O)N4Cc3cccnc3)cs2)c(C)n1` [Compound 115, 1-ethyl-3-methyl-N-(4-(2-oxo-1-(pyridin-3-ylmethyl)-1,2,3,4-tetrahydroquinolin-6-yl)thiazol-2-yl)-1H-pyrazole-4-carboxamide], the EC50 is > 25 µM in [1]; 2 µM in [2]; 18 µM in assay [3]; 2 µM in [5]; 9 µM in assay [7]; 12 µM in assay [9]. Further, the EC50 in assay [10] is 6 µM; in assay [11], > 25 µM. Besides, the IC50 in assay [4] is 17 µM; with HCT116-G31D it was 10 µM; against K-Ras G12D it was 3.4 µM; in [6], 6 µM; in the assay on Panc1-G12D, 9 µM; at wild type K-Ras it was 6.3 µM. Moreover, the IC50 worked out at 11 µM in [8], 4 µM with Panc10.05-G12D and 9 µM in [12].
